Laboratory results published in patent US20140303092A1 (CHIMERIX, INC., priority 2011, published 2014).

Test: Study HDP-CDV-201: safety and tolerability (adverse events, laboratory abnormalities, discontinuations)
Type: in vivo, human (adult allogeneic HSCT recipients)
Conditions: 200 mg BIW
Protocol: Clinical Studies of HDP-CDV were performed and described in detail in the following Examples. For example, HDP-CDV-201 is a placebo-controlled, dose-escalating trial in HSCT CMV (R+) recipients, evaluating the ability of HDP-CDV to prevent or control CMV infection was carried out. Five cohorts were established in which participants or subjects received either placebo or the HDP-CDV orally, in doses ranging from 40 mg weekly (QW) to 200 mg twice weekly (BIW). Subjects who were post-HSCT were enrolled at the time of engraftment and randomized to HDP-CDV or placebo (3 to 1 ratio) and received blinded therapy until approximately 100 day post-transplantation. HDP-CDV doses were 40 mg QW, 100 mg QW, 200 mg QW, 200 mg BIW and 100 mg BIW. Escalation to the next dose was decided by the data monitoring committee after review of the safety data from the previous Cohort. Subjects who developed CMV disease or CMV infection requiring pre-emptive therapy with local standard of care were discontinued from blinded therapy and followed for 4 weeks. Subjects who completed treatment with blinded therapy were followed for 8 weeks post-therapy.
Data from Study HDP-CDV-201 also provided characterization of the safety and tolerability profile of HDP-CDV when administered for the prevention or control of CMV infection in high risk (R^+) post-HSCT adult subjects.
The Safety population (SAFETY) included all randomized subjects who took at least one dose of study treatment. This population was used to summarize safety outcomes based on the treatment actually received, in cases where a subject was treated contrary to the randomization schedule.
The safety and tolerability profile of HDP-CDV, including subject demographics and Baseline characteristics; the AE profile; and laboratory abnormalities of interest were analyzed in the cohorts followed in this investigation.
Subjects completing the treatment period received a full course of study medication; those completing the entire study attended visits through 8 weeks of follow up. Subjects who discontinued treatment may have done so for protocol specified reasons (e.g. development of clinically significant CMV infection requiring preemptive treatment with excluded anti-CMV medications) or for other reasons (e.g., withdrawal, adverse events, loss to follow-up). The disposition of subjects in Study HDP-CDV-201 during the double-blind, placebo-controlled treatment period (through Week 11) is listed by dosing Cohort in TABLE 23.
Adverse events were examined by severity to ensure that all safety signals were identified in this study population. Because of the frequency of events in HSCT recipients, particular attention was given to evaluation of Grade 3 […], 4 (severe), and 5 (fatal) adverse events.
Only those preferred terms for which at least one Grade 3 or higher event was experienced in any treatment group are listed. Cytomegalovirus-related AEs are excluded from this analysis.
HDP-CDV is a lipid conjugate of CDV. Because CDV is known to have adverse effects on renal function and bone marrow, decreased GFR and persistent neutropenia were identified as AEs of special interest. Key renal and hematological (TABLE 30) laboratory parameters were measured and listed below by Study HDP-CDV-201 treatment groups. TABLE 30 includes abnormal levels of serum creatinine, neutrophils, platelets, WBCs, and hemoglobin and includes data at Screening and during the treatment period.
A common metric for unit based dosing of medications is by weight (mg/kg). When the distribution of weights was examined for all subjects participating in the study, the median was 78 kg and the lower 25th percentile weight was approximately 65 kg, which translates to a cut-off of ˜3 mg/kg for a 200 mg total weekly dose. Based upon this approach, a cut-off of 3 mg/kg was used to assess the frequency of diarrhea and associated GI AEs reported for the subjects in Cohorts 3 or 4a (TABLE 40).

CCCCCCCCCCCCCCCCOCCCOP(=O)(O)COC(CO)Cn1ccc(N)nc1=O (stereo not drawn) [HDP-CDV]
24 (80.0%): TEAE Acute GVHD, Frequency
3 (10.0%): TEAE Acute GVHD, Grade 5 | TEAE Back Pain, Frequency | TEAE GGT Increased, Frequency | TEAE Generalized oedema, Frequency | TEAE Hyperkalemia, Frequency | TEAE Hypocalcaemia, Frequency | TEAE LFT Abnormal, Frequency | TEAE Leukocytosis, Frequency
21 (70.0%): TEAE Diarrhea, Frequency
4 (13.3%): TEAE Decreased appetite, Grade 2 | TEAE Neutropenia, Frequency
1 (3.3%): TEAE Arthralgias, Frequency | TEAE Arthralgias, Grade 2 | TEAE Back Pain, Grade 2 | TEAE GGT Increased, Grade 3 | TEAE GGT Increased, Grade 4 | TEAE Hyperbilirubinaemia, Grade 2 | TEAE Hyperbilirubinaemia, Grade 4 | TEAE Hyperkalemia, Grade 2 | TEAE Hyperkalemia, Grade 3 | TEAE Hypocalcaemia, Grade 2 | TEAE Hypocalcaemia, Grade 3 | TEAE Hypokalaemia, Grade 2 | TEAE Hypokalaemia, Grade 3 | TEAE LFT Abnormal, Grade 2 | TEAE LFT Abnormal, Grade 3 | TEAE Leukocytosis, Grade 2 | TEAE Nausea, Grade 3 | TEAE Neutropenia, Grade 3 | TEAE Pneumonia, Frequency | TEAE Pneumonia, Grade 3 | TEAE Staphylococcal Bacteremia, Frequency | TEAE Staphylococcal Bacteremia, Grade 3
5 (16.7%): TEAE Decreased appetite, Frequency | TEAE Hyperbilirubinaemia, Frequency | TEAE Hyperglycaemia, Grade 2 | TEAE Hypokalaemia, Frequency
0: TEAE Abdominal pain, Grade 3 | TEAE Abdominal pain, Grade 4 | TEAE Abdominal pain, Grade 5 | TEAE Arthralgias, Grade 3 | TEAE Arthralgias, Grade 4 | TEAE Arthralgias, Grade 5 | TEAE Back Pain, Grade 3 | TEAE Back Pain, Grade 4 | TEAE Back Pain, Grade 5 | TEAE Decreased appetite, Grade 3 | TEAE Decreased appetite, Grade 4 | TEAE Decreased appetite, Grade 5 | TEAE Diarrhea, Grade 4 | TEAE Diarrhea, Grade 5 | TEAE Fatigue, Frequency | TEAE Fatigue, Grade 2 | TEAE Fatigue, Grade 3 | TEAE Fatigue, Grade 4 | TEAE Fatigue, Grade 5 | TEAE GGT Increased, Grade 2 | TEAE GGT Increased, Grade 5 | TEAE Generalized oedema, Grade 2 | TEAE Generalized oedema, Grade 4 | TEAE Generalized oedema, Grade 5 | TEAE Hyperbilirubinaemia, Grade 3 | TEAE Hyperbilirubinaemia, Grade 5 | TEAE Hyperglycaemia, Grade 4 | TEAE Hyperglycaemia, Grade 5 | TEAE Hyperkalemia, Grade 4 | TEAE Hyperkalemia, Grade 5 | TEAE Hypocalcaemia, Grade 4 | TEAE Hypocalcaemia, Grade 5 | TEAE Hypokalaemia, Grade 4 | TEAE Hypokalaemia, Grade 5 | TEAE Hyponatraemia, Grade 2 | TEAE Hyponatraemia, Grade 3 | TEAE Hyponatraemia, Grade 4 | TEAE Hyponatraemia, Grade 5 | TEAE LFT Abnormal, Grade 4 | TEAE LFT Abnormal, Grade 5 | TEAE Leukocytosis, Grade 3 | TEAE Leukocytosis, Grade 4 | TEAE Leukocytosis, Grade 5 | TEAE Nausea, Grade 4 | TEAE Nausea, Grade 5 | TEAE Neutropenia, Grade 2 | TEAE Neutropenia, Grade 5 | TEAE Pneumonia, Grade 2 | TEAE Pneumonia, Grade 4 | TEAE Pneumonia, Grade 5 | TEAE Pyrexia, Grade 2 | TEAE Pyrexia, Grade 3 | TEAE Pyrexia, Grade 4 | TEAE Pyrexia, Grade 5 | TEAE Renal Failure, Frequency | TEAE Renal Failure, Grade 2 | TEAE Renal Failure, Grade 3 | TEAE Renal Failure, Grade 4 | TEAE Renal Failure, Grade 5 | TEAE Staphylococcal Bacteremia, Grade 2
6 (20.0%): TEAE Nausea, Grade 2
2 (6.7%): TEAE Acute GVHD, Grade 4 | TEAE Generalized oedema, Grade 3 | TEAE Hyperglycaemia, Grade 3 | TEAE Hyponatraemia, Frequency | TEAE Neutropenia, Grade 4 | TEAE Pyrexia, Frequency
10 (30.0%): TEAE Acute GVHD, Grade 3
8 (26.7%): TEAE Diarrhea, Grade 2 | TEAE Hyperglycaemia, Frequency
8 (26.6%): TEAE Acute GVHD, Grade 2
11 (36.7%): TEAE Diarrhea, Grade 3 | TEAE Nausea, Frequency
